Results as given in ChEMBL document CHEMBL1128470, “Novel angiotensin II receptor antagonists. Design, synthesis, and in vitro evaluation of dibenzo[a,d]cycloheptene and dibenzo[b,f]oxepin derivatives. Searching for bioisosteres of biphenylyltetrazole using a three-dimensional search technique” (J Med Chem, 1995).
pKi: −log10 of the molar value.

target: T1, Type-1 angiotensin II receptor (Homo sapiens, UniProt P30556); experiment: Ability to displace [125I]AII binding to COS cells transfected with a cDNA encoding human Angiotensin II receptor, type 1; assay type: cell-based
T1 sequence (P30556 whole entry): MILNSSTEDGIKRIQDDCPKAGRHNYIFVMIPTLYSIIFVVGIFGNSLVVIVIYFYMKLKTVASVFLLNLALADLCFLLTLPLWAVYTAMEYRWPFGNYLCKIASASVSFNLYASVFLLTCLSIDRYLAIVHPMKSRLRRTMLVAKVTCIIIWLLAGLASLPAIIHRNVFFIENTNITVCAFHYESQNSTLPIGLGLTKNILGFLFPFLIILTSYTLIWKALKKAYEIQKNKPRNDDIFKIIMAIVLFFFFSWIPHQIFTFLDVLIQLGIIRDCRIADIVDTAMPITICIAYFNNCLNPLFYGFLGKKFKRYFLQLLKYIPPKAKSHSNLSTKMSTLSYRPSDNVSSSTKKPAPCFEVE

Compound	pKi
CCCCC(=O)N(Cc1ccc2c(-c3nnn[nH]3)cc3ccccc3c(=O)c2c1)[C@H](C(=O)O)C(C)C	8.06
Cc1cc(C)c2nc(C3CC3)n(Cc3ccc4c(-c5nnn[nH]5)cc5ccccc5c(=O)c4c3)c2n1	9.35
CCc1cc(OCc2ccc3c(-c4nnn[nH]4)cc4ccccc4c(=O)c3c2)c2c(n1)CCCC2	8.89
Cc1cc(OCc2ccc3c(-c4nnn[nH]4)cc4ccccc4c(=O)c3c2)c2c(n1)CCCC2	8.37
CCc1cc(OCc2ccc3c(-c4nnn[nH]4)cc4ccccc4c(=O)c3c2)c2ccccc2n1	9.19
CCOc1nc2cccc(C(=O)O)c2n1Cc1ccc2c(-c3nnn[nH]3)cc3ccccc3c(=O)c2c1	8.57
CCOc1nc2cccc(C(=O)O)c2n1Cc1ccc2c(c1)Oc1ccccc1C=C2c1nnn[nH]1	8.41
CCOC(=O)c1c(OCc2ccc3c(-c4nnn[nH]4)cc4ccccc4c(=O)c3c2)cc(C)nc1C	8.37
CCOC(=O)c1c(NCc2ccc3c(-c4nnn[nH]4)cc4ccccc4c(=O)c3c2)cc(C)nc1C	8.54
CCCc1nc2c(C)cc(C)nc2n1Cc1ccc2c(c1)Oc1ccccc1C=C2c1nnn[nH]1	9.15
CCc1nc2c(C)cc(C)nc2n1Cc1ccc2c(-c3nnn[nH]3)cc3ccccc3c(=O)c2c1	9.18
CCCc1nc2c(C)cc(C)nc2n1Cc1ccc2c(c1)Cc1ccccc1C=C2c1nnn[nH]1	9.31
CCCCc1nc(Cl)c(C(=O)O)n1Cc1ccc2c(-c3nnn[nH]3)cc3ccccc3c(=O)c2c1	8.68
CCc1cc(OCc2ccc3c(-c4nnn[nH]4)cc4ccccc4c(=O)c3c2)c2nc(OC)ccc2n1	9.32
CCCCC(=O)N(Cc1ccc2c(c1)Oc1ccccc1C=C2c1nnn[nH]1)[C@H](C(=O)O)C(C)C	8.02
CCCc1nc2c(C)cc(C)nc2n1Cc1ccc2c(-c3nnn[nH]3)cc3ccccc3c(=O)c2c1	9.54
CCc1cc(NCc2ccc3c(-c4nnn[nH]4)cc4ccccc4c(=O)c3c2)n2nccc2n1	8.96
CCCCc1nc(Cl)c(C=O)n1Cc1ccc2c(-c3nnn[nH]3)cc3ccccc3c(=O)c2c1	7.92
CCc1cc(OCc2ccc3c(-c4nnn[nH]4)cc4ccccc4c(=O)c3c2)c2cc(C(=O)O)ccc2n1	8.57
